These results are taken from patent publication US20030044872A1, “Means of stabilizing compositions and reagents” (priority 1999, published 2003).

Like-named read-outs stand apart in the source and are kept apart here.

One series concerns factor XIII. Nature of the series: Inhibiting for factor XIII in absorbed plasma/calcium lactate buffer mixture (Example 4). Note: key: +: Yes; −: No. It is filed as biochemical, bovine. On the procedure:
(§1) To 100 ml of bovine plasma, barium sulfate in 20 w/v % was added. The mixture was mixed for 30 minutes at room temperature, and stirred slowly. Subsequently, the mixture was centrifuged at 5,000×g to remove the barium sulfate precipitate, and absorbed plasma was prepared by adding in the supernatant, and was mixed with 1 ml of N-ethylmaleimide, as inhibitor for Factor XIII. In other words, the composition prepared, contained at least Factor V and fibrinogen. Beside these, the absorbed plasma, without containing 1 mL of N-ethylmaleimide, was prepared and used, as a control.
(§2) Separately, one volume of the absorbed plasma and one volume of 20 mM Hepes-Tris buffer solution (pH 7.0), in which 10 mM of calcium lactate was added, were mixed together to prepare the solution. To the solution, each of substance, stated in Table 1 as below, was added so that mixture might show such a concentration as mentioned in the Table 1. With these mixtures, the inhibiting rate for factor XIII, and a producing rate of the insoluble matter after storage for 24 hours at 10° C. were measured.

A short description of series [1]: Insoluble precipitation after storage of absorbed plasma mixture with various substances (Example 4). Note: key: +: Yes; −: No. The series is classed as physicochemical, bovine. The settings on record: storage 24 hours at 10° C. On the procedure: as §1, §2
Series [2] can be described thus: Influence of N-ethylmaleimide concentration on insoluble precipitation, visually detected (Example 5). Details: key: +: Insoluble Precipitation; ±: Slightly insoluble precipitation; −: No insoluble precipitate. It is filed as physicochemical, bovine. On the procedure:
To 100 ml of bovine plasma, barium sulfate in 20 w/v % was added. The mixture was mixed for 30 minutes at room temperature, and stirred slowly. Subsequently, the mixture was centrifuged at 5,000×g to remove the barium sulfate precipitate, and absorbed plasma was prepared by adding in the supernatant, and was mixed with 1 ml of N-ethylmaleimide, as inhibitor for Factor XIII. In other words, the composition prepared, contained at least Factor V and fibrinogen. Beside these, the absorbed plasma, without containing 1 mL of N-ethylmaleimide, was prepared and used, as a control. The absorbed plasma was prepared in the same manner as stated in the Example 2, except that a concentration of N-ethylmaleimide was varied. Separately, one volume of the absorbed plasma and one volume of 20 mM Hepes-Tris buffer solution (pH 7.0), in which 10 mM of calcium lactate was added, were mixed together to prepare the solution, for which a producing rate of the insoluble matter was visually detected both after storing 24 hours at 10° C., and right after freeze-thawed at −20° C. As clearly seen in the Table 2, it has been cleared that N-ethylmaleimide may inhibit insoluble precipitation even with adding 1 mM concentration, however, more preferably 1 mM to 10 mM.

The nature of series [3]: Insoluble precipitation in three adsorbed plasmas with N-ethylmaleimide (Example 6). It is filed as physicochemical, bovine. On the set-up: key: +: Insoluble precipitation; −: No insoluble precipitation. The note with it: NEM (+). As to the method: To 100 ml of bovine plasma, barium sulfate in 20 w/v % was added. The mixture was mixed for 30 minutes at room temperature, and stirred slowly. Subsequently, the mixture was centrifuged at 5,000×g to remove the barium sulfate precipitate, and absorbed plasma was prepared by adding in the supernatant, and was mixed with 1 ml of N-ethylmaleimide, as inhibitor for Factor XIII. In other words, the composition prepared, contained at least Factor V and fibrinogen. Beside these, the absorbed plasma, without containing 1 mL of N-ethylmaleimide, was prepared and used, as a control. To study the effect of the present invention, one volume of three types absorbed plasma, prepared in the Example 2 and one volume of 20 mM Hepes-Trisbuffersolution were mixed together, and visually detected both after storing 24 hours at 10° C., and right after freeze-thawed at […]. As clearly seen in the Table 3, none of the adsorbed plasma mixed with N-ethylmaleimide observed the insoluble precipitation, neither in storing at 10° C. or after freeze-thawed treatment. […] Thus, it has become clear that the insoluble precipitation can be inhibited by adding N-ethylmaleimide.

Series [4] concerns commercially available control plasma. The series can be described thus: Reagent performance: coagulation activity / clotting time of control plasma on blood coagulation analyzer Coagre (Example 8). The settings on record: reagent with NEM added. It is filed as biochemical. On the procedure:
In order to confirm the performance of each reagent, prepared in the Example 8, the performance was evaluated using Blood coagulation analyzer, Coagre (manufactured by Shimazu, Co., Japan) by measuring clotting time with commercially available control plasma. The performance and stability of the reagent evaluated by using the reagents, prepared and preserved for several days at 10° C., to obtain plasma coagulation activity of control plasma. As clearly seen in the Table 5, clotting time was not varied even adding NEM.

Series [5] in a line: Stabilizing effect of 1:1 mixtures of NEM with other inhibitors, procedures of Examples 5 to 8 (Example 9). It is filed as physicochemical, bovine. The source says: The procedures stated in the Examples 5 to 8 were repeatedly carried out using the mixtures of NEM with monochloroamide, acrylamide, glycinamide, and dithioprydine, as an inhibiting agent, in an amount of 1:1, as other representative examples.

The mark [6] stands for this setting: substance 1 mM in absorbed plasma + Hepes-Tris/calcium lactate.
Setting [7] is: mixture of NEM with the inhibitor 1:1, procedures of Examples 5 to 8.

Regarding `O=C(O)CI` [Monoiodo acetic acid], the “Inhibiting for factor XIII” value in the series on factor XIII (setting [6]) is given as “+”. For the same compound, the Precipitation entry in series [1] (substance 1 mM) was “−”.

As for `CN(C)c1c([N+](=O)[O-])cc(N2C(=O)C=CC2=O)cc1[N+](=O)[O-]` [N-(4-dimethylamino-3,5-dinitrophenyl) maleimide], the “Inhibiting for factor XIII” value in the series with factor XIII (setting [6]) is listed as “+”. Moreover, the Precipitation entry in series [1] (substance 1 mM) is “−”.

Take `CCN1C(=O)C=CC1=O` [N-ethylmaleimide]: the “Inhibiting for factor XIII” value in the series on factor XIII (setting [6]) is recorded as “+”. Also, the Precipitation result in series [1] (substance 1 mM) was “−”. In addition, the Insoluble precipitation result in series [2] (0.1 mM, Bovine plasma 1, 24 hours at 10° C.) is reported as “±”; in series [2] (0.1 mM, Bovine plasma 1, freeze-thawed at −20° C.) it was “+”; in series [2] (0.1 mM, Bovine plasma 2, 24 hours at 10° C.) it was “±”; in series [2] (0.1 mM, Bovine plasma 2, freeze-thawed at −20° C.) it was “+”; in series [2] (1 mM, Bovine plasma 1, 24 hours at 10° C.), “−”; in series [2] (1 mM, Bovine plasma 1, freeze-thawed at −20° C.) it was “−”. The Insoluble precipitation result in series [2] (1 mM, Bovine plasma 2, 24 hours at 10° C.) is given as “−”; in series [2] (1 mM, Bovine plasma 2, freeze-thawed at −20° C.), “−”; in series [2] (2 mM, Bovine plasma 1, 24 hours at 10° C.) it was “−”; in series [2] (2 mM, Bovine plasma 1, freeze-thawed at −20° C.), “−”; in series [2] (2 mM, Bovine plasma 2, 24 hours at 10° C.), “−”; in series [2] (2 mM, Bovine plasma 2, freeze-thawed at −20° C.), “−”. For the same compound, the Insoluble precipitation result in series [2] (5 mM, Bovine plasma 1, 24 hours at 10° C.) is listed as “−”; in series [2] (5 mM, Bovine plasma 1, freeze-thawed at −20° C.), “−”; in series [2] (5 mM, Bovine plasma 2, 24 hours at 10° C.), “−”; in series [2] (5 mM, Bovine plasma 2, freeze-thawed at −20° C.), “−”; in series [2] (10 mM, Bovine plasma 1, 24 hours at 10° C.) it was “−”; in series [2] (10 mM, Bovine plasma 1, freeze-thawed at −20° C.) it was “−”. Further, the Insoluble precipitation entry in series [2] (10 mM, Bovine plasma 2, 24 hours at 10° C.) was “−”; in series [2] (10 mM, Bovine plasma 2, freeze-thawed at −20° C.), “−”; in series [3] (Adsorbed plasma 1, Storage after freeze-thawing at −20° C.) it was “−”; in series [3] (Adsorbed plasma 1, Storage at 10° C.), “−”; in series [3] (Adsorbed plasma 2, Storage after freeze-thawing at −20° C.) it was “−”; in series [3] (Adsorbed plasma 2, Storage at 10° C.), “−”. For the same compound, the Insoluble precipitation result in series [3] (Adsorbed plasma 3, Storage after freeze-thawing at −20° C.) is “−”; in series [3] (Adsorbed plasma 3, Storage at 10° C.) it was “−”. The clotting time entry in series [4] was “not varied”.

In the case of `[Cl-].[Na+]` [NaCl], the “Inhibiting for factor XIII” value with factor XIII (substance 10 mM in absorbed plasma + Hepes-Tris/calcium lactate) was “−”.

Take `OC[C@H]1O[C@@](CO)(O[C@H]2O[C@H](CO)[C@@H](O)[C@H](O)[C@H]2O)[C@@H](O)[C@@H]1O` [Sucrose]: the “Inhibiting for factor XIII” value in the series with factor XIII (substance 5% in absorbed plasma + Hepes-Tris/calcium lactate) is listed as “−”. Also, in series [1] (substance 5%), the Precipitation result is listed as “+”.

With `C=CC(N)=O` [acrylamide], the “stabilizing effect compared with NEM” value in series [5] (setting [7]) is “equal or slightly inferior to NEM”.

Turning to `NCC(N)=O` [glycinamide], in series [5], the “stabilizing effect compared with NEM” value is recorded as “equal or slightly inferior to NEM”.

For the compound “Bovine serum albumin: Bovine serum albumin, comparison substance added at 1%”, in the series with factor XIII (substance 1% in absorbed plasma + Hepes-Tris/calcium lactate), the “Inhibiting for factor XIII” value was “−”. Besides, the Precipitation result in series [1] (substance 1%) is given as “+”.

Consider dithioprydine, for which, in series [5], the “stabilizing effect compared with NEM” value is reported as “equal or slightly inferior to NEM”.

As for monochloroamide, the “stabilizing effect compared with NEM” value in series [5] (setting [7]) was “equal or slightly inferior to NEM”.
